Test results as given in ChEMBL document CHEMBL4000149, “The effect of glycine replacement with flexible ω-amino acids on the antimicrobial and haemolytic activity of an amphipathic cyclic heptapeptide” (Eur J Med Chem, 2015).
Values after ≈ are worked out from the molar mass of the structure shown. Numbered stars: 1 amine (or outer) side, 2 acyl side, 3 side chain; on linkers, the order of the positions; unused ones are H or OH. Bridge positions count the residues as written; N and C are the ends. Square brackets hold non-standard residues; d marks the D form. Peptide text beside a SMILES is read from it. ξ: configuration not given here. 2Nal = N[C@@H](Cc1ccc2ccccc2c1)C(=O)O; X1 = NC(CCN[*:2])C(=O)[*:1]; ξAoc(2) = CCCCCCC(N)C(=O)O; ξDab = NCCC(N)C(=O)O; GABA = NCCCC(=O)O

Columns and labels:
[1] = tested on: Klebsiella pneumoniae; assay: Antimicrobial activity against multidrug-resistant Klebsiella pneumoniae ATCC 700603 by tube dilution method; format: functional
[2] = Toxicity in human erythrocytes assessed as hemolysis after 1 hr; format: cell-based, Erythrocyte
[3] = Toxicity in human erythrocytes assessed as hemolysis at 150 uM after 1 hr; format: cell-based, Erythrocyte; conditions: read-out: Activity
[4] = tested on: Escherichia coli; assay: Antimicrobial activity against Escherichia coli ATCC 25922 by tube dilution method; format: functional
[5] = tested on: Staphylococcus aureus; assay: Antimicrobial activity against methicillin-resistant Staphylococcus aureus ATCC 33591 by tube dilution method; format: functional
[6] = tested on: Enterococcus faecium; assay: Antimicrobial activity against vancomycin-resistant Enterococcus faecium ATCC 700221 by tube dilution method; format: functional
[7] = tested on: Acinetobacter baumannii; assay: Antimicrobial activity against multidrug-resistant Acinetobacter baumannii ATCC BAA-1605 by tube dilution method; format: functional
[8] = tested on: Candida albicans; assay: Antifungal activity against Candida albicans ATCC 200955 by tube dilution method; format: functional
[9] = tested on: Pseudomonas aeruginosa; assay: Antimicrobial activity against Pseudomonas aeruginosa ATCC 27853 by tube dilution method; format: functional

Compound | MIC [1] [µM] | EC50 at 1 hr [2] [µM] | hemolysis at 1 h, 150 µM [3] [%] | MIC [4] [µM] | MIC [5] [µM] | MIC [6] [µM] | MIC [7] [µM] | MIC [8] [µM] | MIC [9] [µM]
CC(C)C[C@@H]1NC(=O)CNC(=O)[C@H](Cc2ccc3ccccc3c2)NC(=O)[C@H](CCCNC(=N)N)NC(=O)[C@H](CC(C)C)NC(=O)[C@H](Cc2ccc3ccccc3c2)NC(=O)[C@H](CCCNC(=N)N)NC1=O | 128 (≈ 127 µg/mL) | 215 | 27 | 32 (≈ 31.7 µg/mL) | 8 (≈ 7.92 µg/mL) | 8 (≈ 7.92 µg/mL) | 128 (≈ 127 µg/mL) | 16 (≈ 15.8 µg/mL) | 64 (≈ 63.4 µg/mL)
CCCCCCC1NC(=O)[C@H](Cc2ccc3ccccc3c2)NC(=O)[C@H](CCCNC(=N)N)NC(=O)[C@H](CC(C)C)NC(=O)CNC(=O)[C@H](Cc2ccc3ccccc3c2)NC(=O)[C@H](CCCNC(=N)N)NC1=O (stereo not given in full) | 16 (≈ 16.3 µg/mL) | 33 | 100 | 16 (≈ 16.3 µg/mL) | 4 (≈ 4.07 µg/mL) | 2 (≈ 2.04 µg/mL) | 16 (≈ 16.3 µg/mL) | 4 (≈ 4.07 µg/mL) | 32 (≈ 32.6 µg/mL)
CCCCCC[C@H]1NC(=O)[C@H](Cc2ccc3ccccc3c2)NC(=O)[C@H](CCCNC(=N)N)NC(=O)[C@H](CC(C)C)NC(=O)CNC(=O)[C@H](Cc2ccc3ccccc3c2)NC(=O)[C@H](CCCNC(=N)N)NC1=O | 64 (≈ 65.2 µg/mL) | 55 | 100 | 32 (≈ 32.6 µg/mL) | 8 (≈ 8.15 µg/mL) | 8 (≈ 8.15 µg/mL) | 32 (≈ 32.6 µg/mL) | 16 (≈ 16.3 µg/mL) | 64 (≈ 65.2 µg/mL)
CC(C)C[C@@H]1NC(=O)CNC(=O)[C@@H](Cc2ccc3ccccc3c2)NC(=O)[C@H](CCCNC(=N)N)NC(=O)[C@H](CC(C)C)NC(=O)[C@H](Cc2ccc3ccccc3c2)NC(=O)[C@H](CCCNC(=N)N)NC1=O | > 128 | > 150 | < 8 | 128 (≈ 127 µg/mL) | 32 (≈ 31.7 µg/mL) | 16 (≈ 15.8 µg/mL) | 128 (≈ 127 µg/mL) | 64 (≈ 63.4 µg/mL) | > 128
CCCCCCC1NC(=O)[C@@H](Cc2ccc3ccccc3c2)NC(=O)[C@H](CCCNC(=N)N)NC(=O)[C@H](CC(C)C)NC(=O)CNC(=O)[C@H](Cc2ccc3ccccc3c2)NC(=O)[C@H](CCCNC(=N)N)NC1=O (stereo not given in full) | 64 (≈ 65.2 µg/mL) | 55 | 92 | 32 (≈ 32.6 µg/mL) | 8 (≈ 8.15 µg/mL) | 8 (≈ 8.15 µg/mL) | 64 (≈ 65.2 µg/mL) | 16 (≈ 16.3 µg/mL) | 64 (≈ 65.2 µg/mL)
CC(C)C[C@@H]1NC(=O)[C@H](Cc2ccc3ccccc3c2)NC(=O)[C@H](CCCNC(=N)N)NC(=O)[C@H](CC(C)C)NC(=O)[C@@H](N)CCCCNC(=O)[C@H](Cc2ccc3ccccc3c2)NC(=O)[C@H](CCCNC(=N)N)NC1=O (H-KLR[2Nal]LR[2Nal]; lactam 1-C) | 32 (≈ 34 µg/mL) | 150 | 51 | 32 (≈ 34 µg/mL) | 8 (≈ 8.49 µg/mL) | 4 (≈ 4.25 µg/mL) | 32 (≈ 34 µg/mL) | 8 (≈ 8.49 µg/mL) | 32 (≈ 34 µg/mL)
CC(C)C[C@@H]1NC(=O)C(N)CCNC(=O)[C@H](Cc2ccc3ccccc3c2)NC(=O)[C@H](CCCNC(=N)N)NC(=O)[C@H](CC(C)C)NC(=O)[C@H](Cc2ccc3ccccc3c2)NC(=O)[C@H](CCCNC(=N)N)NC1=O (stereo not given in full) (H-[ξDab]LR[2Nal]LR[2Nal]; lactam 1-C) | 64 (≈ 66.1 µg/mL) | 265 | < 8 | 64 (≈ 66.1 µg/mL) | 32 (≈ 33.1 µg/mL) | 8 (≈ 8.27 µg/mL) | > 128 | 16 (≈ 16.5 µg/mL) | 128 (≈ 132 µg/mL)
CC(C)C[C@@H]1NC(=O)C(N)CCNC(=O)C(N)CCNC(=O)[C@H](Cc2ccc3ccccc3c2)NC(=O)[C@H](CCCNC(=N)N)NC(=O)[C@H](CC(C)C)NC(=O)[C@H](Cc2ccc3ccccc3c2)NC(=O)[C@H](CCCNC(=N)N)NC1=O (stereo not given in full) (H-[ξDab]LR[2Nal]LR[2Nal]; linker 1-C via X1) | 128 (≈ 145 µg/mL) | > 450 | < 8 | 32 (≈ 36.3 µg/mL) | 16 (≈ 18.1 µg/mL) | 8 (≈ 9.07 µg/mL) | 128 (≈ 145 µg/mL) | 16 (≈ 18.1 µg/mL) | 32 (≈ 36.3 µg/mL)
CC(C)C[C@@H]1NC(=O)C(N)CCNC(=O)CCCNC(=O)[C@H](Cc2ccc3ccccc3c2)NC(=O)[C@H](CCCNC(=N)N)NC(=O)[C@H](CC(C)C)NC(=O)[C@H](Cc2ccc3ccccc3c2)NC(=O)[C@H](CCCNC(=N)N)NC1=O (stereo not given in full) (H-[ξDab]LR[2Nal]LR[2Nal][GABA]; lactam 1-C) | 64 (≈ 71.6 µg/mL) | 420 | < 8 | 32 (≈ 35.8 µg/mL) | 8 (≈ 8.95 µg/mL) | 8 (≈ 8.95 µg/mL) | 64 (≈ 71.6 µg/mL) | 32 (≈ 35.8 µg/mL) | 64 (≈ 71.6 µg/mL)
CCCCCCC1NC(=O)[C@H](Cc2ccc3ccccc3c2)NC(=O)[C@H](CCCNC(=N)N)NC(=O)[C@H](CC(C)C)NC(=O)C(N)CCNC(=O)C(N)CCNC(=O)[C@H](Cc2ccc3ccccc3c2)NC(=O)[C@H](CCCNC(=N)N)NC1=O (stereo not given in full) (H-[ξDab]LR[2Nal][ξAoc(2)]R[2Nal]; linker 1-C via X1) | 64 (≈ 74.3 µg/mL) | 55 | 100 | 16 (≈ 18.6 µg/mL) | 4 (≈ 4.65 µg/mL) | 4 (≈ 4.65 µg/mL) | 64 (≈ 74.3 µg/mL) | 8 (≈ 9.29 µg/mL) | 32 (≈ 37.2 µg/mL)
